Laboratory results: ChEMBL document CHEMBL1201862, “PubChem BioAssay data set” (2004)
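Grown in 96-well plates, cells were treated for 48 hours with each compound at five concentrations. Insufficient inhibition: endpoint recorded as highest concentration tested. The concentration for 50% growth inhibition is given as GI50.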 The source made the active and inactive calls. Cut-off read from the data, not from the text of the source: active = GI50 up to about 1.1 µM and inactive = higher.

How the values were obtained:
Test in all cases: inhibition of tumour cell growth, NCI panel, 48 h
786-0 = test system: 786-0
A498 = test system: A498
A549 = test system: A549
ACHN = test system: ACHN
BT-549 = test system: BT-549
CAKI-1 = test system: CAKI-1
CCRF-CEM = test system: CCRF-CEM
COLO 205 = test system: COLO 205
DU-145 = test system: DU-145
EKVX = test system: EKVX
HCC 2998 = test system: HCC 2998
HCT-116 = test system: HCT-116
HCT-15 = test system: HCT-15
HL-60 = test system: HL-60
HOP-62 = test system: HOP-62
HOP-92 = test system: HOP-92
HT-29 = test system: HT-29
Hs-578T = test system: Hs-578T
IGROV-1 = test system: IGROV-1
K562 = test system: K562
KM12 = test system: KM12
LOX IMVI = test system: LOX IMVI
M14 = test system: M14
MCF7 = test system: MCF7
MDA-MB-231 = test system: MDA-MB-231
MDA-MB-435 = test system: MDA-MB-435
MDA-N = test system: MDA-N
MOLT-4 = test system: MOLT-4
Malme-3M = test system: Malme-3M
NCI-H226 = test system: NCI-H226
NCI-H460 = test system: NCI-H460
NCI-H522 = test system: NCI-H522
NCI/ADR-RES = test system: NCI/ADR-RES
OVCAR-3 = test system: OVCAR-3
OVCAR-4 = test system: OVCAR-4
OVCAR-8 = test system: OVCAR-8
PC-3 = test system: PC-3
RPMI-8226 = test system: RPMI-8226
RXF 393 = test system: RXF 393
SF-268 = test system: SF-268
SF-295 = test system: SF-295
SF-539 = test system: SF-539
SK-MEL-28 = test system: SK-MEL-28
SK-MEL-2 = test system: SK-MEL-2
SK-MEL-5 = test system: SK-MEL-5
SK-OV-3 = test system: SK-OV-3
SN12C = test system: SN12C
SNB-19 = test system: SNB-19
SNB-75 = test system: SNB-75
SR = test system: SR
SW-620 = test system: SW-620
T47D = test system: T47D
TK-10 = test system: TK-10
U-251 = test system: U-251
UACC-257 = test system: UACC-257
UACC-62 = test system: UACC-62
UO-31 = test system: UO-31

Measured: GI50

Cc1cc(-c2nc3cccc(F)c3s2)ccc1N
> 67.6 µM: HCT-15
inactive: 786-0 > 56.2 µM | A498 > 58.6 µM | A549 > 52 µM | ACHN > 74.1 µM | BT-549 46.2 µM | CAKI-1 > 59.6 µM | CCRF-CEM 8.04 µM | COLO 205 > 100 µM | DU-145 > 73.5 µM | EKVX 49.5 µM | HCC 2998 > 37.1 µM | HCT-116 > 52.7 µM | HL-60 13.3 µM | HOP-62 > 100 µM | HOP-92 > 50.8 µM | HT-29 > 57.3 µM | Hs-578T > 54.2 µM | IGROV-1 1.93 µM | K562 > 56.6 µM | KM12 > 57.1 µM | LOX IMVI > 63.2 µM | M14 > 68.2 µM | MDA-MB-231 98.9 µM | MDA-MB-435 > 61.4 µM | MDA-N > 60.3 µM | MOLT-4 42.9 µM | Malme-3M > 100 µM | NCI-H226 22.1 µM | NCI-H460 > 20.4 µM | NCI-H522 > 100 µM | NCI/ADR-RES > 62.2 µM | OVCAR-3 > 66.5 µM | OVCAR-4 > 27.2 µM | OVCAR-8 > 80.9 µM | PC-3 > 65.8 µM | RPMI-8226 > 52.6 µM | RXF 393 > 71 µM | SF-268 > 35 µM | SF-295 > 65 µM | SF-539 > 100 µM | SK-MEL-28 > 100 µM | SK-MEL-2 > 85.3 µM | SK-MEL-5 > 100 µM | SK-OV-3 > 100 µM | SN12C > 45.8 µM | SNB-19 > 80.2 µM | SNB-75 > 51.4 µM | SR 2.52 µM | SW-620 > 87.9 µM | U-251 > 68.2 µM | UACC-257 > 68.1 µM | UACC-62 > 96.4 µM | UO-31 > 45 µM
active: MCF7 0.0132 µM | T47D 0.033 µM | TK-10 0.48 µM
